# “And” between values parts separate entries of the source, which are not always exact repeats. Equal values may be shown once. Marks after values point to notes of the source that are not given here.
# What was measured:
# [1] = Solubility of solid drug in supercritical carbon dioxide (isobaric-isothermal method, UV-Vis at 290 nm); type: physicochemical; conditions: for y2 × 10^4 (mole fraction): value is y2 × 10^4
# Method: The method utilized is considered as the isobaric-isothermal method. Each measurement is performed with high precision, during experiments; temperature is maintained at desired value within ± 0.1 K. A known amount of pantoprazole sodium sesquihydrate drug (solute) has been used in the equilibrium cell to measure the solubility data. The capacity of the cell is 70 mL. A magnetic stirrer was mounted with the cell to measure the solubility data. A magnetic stirrer that is mounted with the equilibrium cell helps in attaining equilibrium between the solute and the ScCO2. To confirm equilibrium attainment, the experiments are done with a fresh sample at specified temperature and pressure at various time intervals (5 min, 10 min, 20 min, 30 min, 40 min, 50 min and 60 min) and the solubility readings are recorded. It is observed that the solubility is independent of time after 30 min. Thus, for correct results after 60 min, samples are considered for analysis. After equilibrium, 600 μL of a saturated sample is collected in dematerialized water (DM water's conductivity is 1μS/cm) via a 6-way port, two-status valve. More details are readily available elsewhere[30],[31]. This experimental setup has already been validated in the previous work with alpha-tocopherol and naphthalene. Each experiment is carried out in triplicate. Spectrophotometer (UV-Visible, Model UNICO-4802) is utilized to quantify the pantoprazole sodium sesquihydrate solubility. The drug test samples were prepared by dissolving known weights of drug in known volume of DM water. Pantoprazole sodium sesquihydrate samples were analyzed at 290 nm and calibrations curve was established, indicating R^2 of 0.99. The following sets of equations are used to calculate equilibrium mole fraction, y2, and solubility, S (g/L), in ScCO2:1 y2=nsolute/nsolute+nCO2, where:2 […]/mol,and 3 […]/mol 4 […]) where nsolute and nCO2 are moles of solute (Pantoprazole sodium sesquihydrate) and CO2 in the sampling loop, respectively, Cs is the solute concentration (g/L), Ms and MCO2 are molecular weights of the solute and CO2 and S (g/L) is the equilibrium solubility.
# [2] = Thermodynamic properties calculated from constants of the Chrastil, reformulated Chrastil and Bartle solubility models; type: physicochemical
# From the text: It is the first solvate complex model and correlates solubility as a function of supercritical fluid density and temperature as:18 y2=ρ1^κ-1[…] where κ and E0-E1 are model constants. Since Eq. (13) is dimensionally inconsistent[24],[26],[39], it is dimensionally corrected and known as Reformulated […] model:19 y2=[…] where κ^' and E0-E1 are model constants. It is one of the successful empirical models and correlates solubility as a function of temperature, supercritical fluid density and total pressure as:20 […] where G0-G2 are model constants. From parameter G1 , the vaporization enthalpy is ΔvapH=-G1R in which R is universal gas constant. The new solution model proposed in this work has three adjustable parameters ( ΔCp , a11 and a22 ). For regression, these parameters are treated as temperature dependent and temperature independent. Although conceptually, these parameters are temperature dependent[43],[44], however, in literature, these parameters are handled as temperature independent over a small temperature range[45]. Therefore, both temperature dependent and independent results are reported in this study. For regression, melting temperature and molar volume of pantoprazole sodium sesquihydrate are needed. The required melting temperature is obtained from the material's source and the molar volume of the solid pantoprazole sodium sesquihydrate is calculated using Immirzi and […] method. […] The proposed model correlates the data less than 14.9% and 16.23% in terms of AARD% for temperature dependent and independent cases, respectively. […] The correlations of the solubility data with temperature dependent parameters are better than temperature independent parameters. […], Sodeifian et al., and […] models correlate the solubility data. The correlations of the data are quite satisfactory for […] model compared to […] and Sodeifian models. From the conventional model constants, the thermodynamic properties, namely total heat of enthalpy of vaporization and solvation are calculated and reported in Table 6. […]
structure (smiles),measurement,setting,value
"COc1ccnc(C[S+]([O-])c2nc3ccc(OC(F)F)cc3[nH]2)c1OC (stereo not shown) [pantoprazole sodium sesquihydrate, Pantoprazole sodium sesquihydrate]",y2 × 10^4 (mole fraction),"[1]; in ScCO2, 308 K, 12 MPa, ScCO2 density 769 kg/m^3",0.0648 mole fraction
same,y2 × 10^4 (mole fraction),"[1]; in ScCO2, 308 K, 15 MPa, ScCO2 density 817 kg/m^3",0.0764 mole fraction
same,y2 × 10^4 (mole fraction),"[1]; in ScCO2, 308 K, 18 MPa, ScCO2 density 849 kg/m^3",0.0921 mole fraction
same,y2 × 10^4 (mole fraction),"[1]; in ScCO2, 308 K, 21 MPa, ScCO2 density 875 kg/m^3",0.0958 mole fraction
same,y2 × 10^4 (mole fraction),"[1]; in ScCO2, 308 K, 24 MPa, ScCO2 density 896 kg/m^3",0.1239 mole fraction
same,y2 × 10^4 (mole fraction),"[1]; in ScCO2, 308 K, 27 MPa, ScCO2 density 914 kg/m^3",0.1489 mole fraction
same,y2 × 10^4 (mole fraction),"[1]; in ScCO2, 318 K, 12 MPa, ScCO2 density 661 kg/m^3",0.0548 mole fraction
same,y2 × 10^4 (mole fraction),"[1]; in ScCO2, 318 K, 15 MPa, ScCO2 density 744 kg/m^3",0.0580 mole fraction
same,y2 × 10^4 (mole fraction),"[1]; in ScCO2, 318 K, 18 MPa, ScCO2 density 791 kg/m^3",0.0990 mole fraction
same,y2 × 10^4 (mole fraction),"[1]; in ScCO2, 318 K, 21 MPa, ScCO2 density 824 kg/m^3",0.1192 mole fraction
same,y2 × 10^4 (mole fraction),"[1]; in ScCO2, 318 K, 24 MPa, ScCO2 density 851 kg/m^3",0.1436 mole fraction
same,y2 × 10^4 (mole fraction),"[1]; in ScCO2, 318 K, 27 MPa, ScCO2 density 872 kg/m^3",0.1930 mole fraction
same,y2 × 10^4 (mole fraction),"[1]; in ScCO2, 328 K, 12 MPa, ScCO2 density 509 kg/m^3",0.0381 mole fraction
same,y2 × 10^4 (mole fraction),"[1]; in ScCO2, 328 K, 15 MPa, ScCO2 density 656 kg/m^3",0.0498 mole fraction
same,y2 × 10^4 (mole fraction),"[1]; in ScCO2, 328 K, 18 MPa, ScCO2 density 725 kg/m^3",0.1388 mole fraction
same,y2 × 10^4 (mole fraction),"[1]; in ScCO2, 328 K, 21 MPa, ScCO2 density 769 kg/m^3",0.1579 mole fraction
same,y2 × 10^4 (mole fraction),"[1]; in ScCO2, 328 K, 24 MPa, ScCO2 density 802 kg/m^3",0.2354 mole fraction
same,y2 × 10^4 (mole fraction),"[1]; in ScCO2, 328 K, 27 MPa, ScCO2 density 829 kg/m^3",0.3106 mole fraction
same,y2 × 10^4 (mole fraction),"[1]; in ScCO2, 338 K, 12 MPa, ScCO2 density 388 kg/m^3",0.0301 mole fraction
same,y2 × 10^4 (mole fraction),"[1]; in ScCO2, 338 K, 15 MPa, ScCO2 density 557 kg/m^3",0.0403 mole fraction
same,y2 × 10^4 (mole fraction),"[1]; in ScCO2, 338 K, 18 MPa, ScCO2 density 652 kg/m^3",0.1548 mole fraction
same,y2 × 10^4 (mole fraction),"[1]; in ScCO2, 338 K, 21 MPa, ScCO2 density 710 kg/m^3",0.1938 mole fraction
same,y2 × 10^4 (mole fraction),"[1]; in ScCO2, 338 K, 24 MPa, ScCO2 density 751 kg/m^3",0.3408 mole fraction
same,y2 × 10^4 (mole fraction),"[1]; in ScCO2, 338 K, 27 MPa, ScCO2 density 783 kg/m^3",0.4634 mole fraction
same,cross over pressure,"[1]; solubility isotherms 308-338 K in ScCO2, from Fig. 2",around 16.0 MPa
same,"Enthalpy of solvation, ΔHsol",[2]; Bartle et al. and Chrastil models combination (difference of ΔHvap and ΔHtotal),−15.829 kJ/mol and −15.829^d kJ/mol
same,Enthalpy of vaporization ΔHvap,[2]; from Bartle et al. model (ΔvapH = −G1R),~75.261^c (approximate value) kJ/mol
same,"Total enthalpy, ΔHtotal",[2]; from Reformulated Chrastil model,39.832^b kJ/mol
